Results taken from patent US12552783B2, “Modulators of proteolysis and associated methods of use” (Arvinas Operations, Inc., priority 2018, dated 2026).

Molecular target: KRas (Homo sapiens, UniProt P01116, G12C)
Assay: KRas degradation in NCI-H2030 cells by Western blot, normalized to GAPDH (data of Table 14)
Type: cell-based
Design: host or cells: NCI-H2030
Conditions: for Percent Degradation at Indicated Concentration (μM): H2030; for Dmax: NCI-H2030
Procedure, shortened: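 Readout: GAPDH-normalized KRas immunoblot signal, expressed as percent degradation versus 0.1% DMSO vehicle. Treatment: 0.3, 1, 3 μM after 24 h starvation; 24 h (VHL-based) or 72 h (others).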

Structure (SMILES): C=CC(=O)N1CCN(c2nc(NCCC(=O)N(C)CCOCCOCCOCCNC(=O)c3ccc(NC(=O)[C@@H]4N[C@@H](CC(C)(C)C)[C@](C#N)(c5ccc(Cl)cc5F)[C@H]4c4cccc(Cl)c4F)c(OC)c3)nc3c(F)c(-c4c(O)cccc4F)c(Cl)cc23)CC1 (atropisomer, axis not shown) [compound 311, (2R,3S,4R,5S)-N-(4-((15-((4-(4-acryloylpiperazin-1-yl)-6-chloro-8-fluoro-7-((S)-2-fluoro-6-hydroxyphenyl)quinazolin-2-yl)amino)-12-methyl-13-oxo-3,6,9-trioxa-12-azapentadecyl)carbamoyl)-2-methoxyphenyl)-3-(3-chloro-2-fluorophenyl)-4-(4-chloro-2-fluorophenyl)-4-cyano-5-neopentylpyrrolidine-2-carboxamide]
- Percent Degradation at Indicated Concentration (μM) (0.3 μM): C (Percent Degradation: C ≤ 35)
- Percent Degradation at Indicated Concentration (μM) (1 μM): C (Percent Degradation: C ≤ 35)
- Percent Degradation at Indicated Concentration (μM) (3 μM): C (Percent Degradation: C ≤ 35)
- Dmax: ≤ 35%

Structure (SMILES): C=CC(=O)N1CCN(c2nc(NCCC(=O)N(C)CCOCCOCCOCCOCC(=O)N[C@H](C(=O)N3C[C@H](O)C[C@H]3C(=O)N[C@@H](C)c3ccc(-c4scnc4C)cc3)C(C)(C)C)nc3c(F)c(-c4cc(O)cc5ccccc45)c(Cl)cc23)CC1 (racemic) [compound 195, (2RS,4SR)-1-((RS)-21-((4-(4-acryloylpiperazin-1-yl)-6-chloro-8-fluoro-7-((RS)-3-hydroxynaphthalen-1-yl)quinazolin-2-yl)amino)-2-(tert-butyl)-18-methyl-4,19-dioxo-6,9,12,15-tetraoxa-3,18-diazahenicosanoyl)-4-hydroxy-N-((RS)-1-(4-(4-methylthiazol-5-yl)phenyl)ethyl)pyrrolidine-2-carboxamide]
- Percent Degradation at Indicated Concentration (μM) (3 μM): C (Percent Degradation: C ≤ 35)

Structure (SMILES): CN(CCOCCOc1ccc2c(c1)C(=O)N(C1CCC(=O)NC1=O)C2=O)C(=O)CCNc1nc(N2CCN(C(N)=O)CC2)c2cc(Cl)c(-c3cc(O)cc4ccccc34)c(F)c2n1 (stereo not shown) [compound 27, 4-(6-chloro-2-((3-((2-(2-((2-(2,6-dioxopiperidin-3-yl)-1,3-dioxoisoindolin-5-yl)oxy)ethoxy)ethyl)(methyl)amino)-3-oxopropyl)amino)-8-fluoro-7-(3-hydroxynaphthalen-1-yl)quinazolin-4-yl)piperazine-1-carboxamide]
- Percent Degradation at Indicated Concentration (μM) (0.3 μM): C (Percent Degradation: C ≤ 35)
- Percent Degradation at Indicated Concentration (μM) (1 μM): C (Percent Degradation: C ≤ 35)
- Percent Degradation at Indicated Concentration (μM) (3 μM): C (Percent Degradation: C ≤ 35)
- Dmax: ≤ 35%

Structure (SMILES): CN(CCOCCNc1cccc2c1C(=O)N(C1CCC(=O)NC1=O)C2=O)C(=O)CCNc1nc(N2CCN(C(N)=O)CC2)c2cc(Cl)c(-c3cc(O)cc4ccccc34)c(F)c2n1 (stereo not shown) [compound 32, 4-(6-chloro-2-((3-((2-(2-((2-(2,6-dioxopiperidin-3-yl)-1,3-dioxoisoindolin-4-yl)amino)ethoxy)ethyl)(methyl)amino)-3-oxopropyl)amino)-8-fluoro-7-(3-hydroxynaphthalen-1-yl)quinazolin-4-yl)piperazine-1-carboxamide]
- Percent Degradation at Indicated Concentration (μM) (0.3 μM): C (Percent Degradation: C ≤ 35)
- Percent Degradation at Indicated Concentration (μM) (1 μM): C (Percent Degradation: C ≤ 35)
- Percent Degradation at Indicated Concentration (μM) (3 μM): C (Percent Degradation: C ≤ 35)
- Dmax: ≤ 35%

Structure (SMILES): CN(CCOCCOCCOCCNc1cccc2c1C(=O)N(C1CCC(=O)NC1=O)C2=O)C(=O)CCNc1nc(N2CCN(C(N)=O)CC2)c2cc(Cl)c(-c3cc(O)cc4ccccc34)c(F)c2n1 (stereo not shown) [compound 34, 4-(6-chloro-2-((1-((2-(2,6-dioxopiperidin-3-yl)-1,3-dioxoisoindolin-4-yl)amino)-12-methyl-13-oxo-3,6,9-trioxa-12-azapentadecan-15-yl)amino)-8-fluoro-7-(3-hydroxynaphthalen-1-yl)quinazolin-4-yl)piperazine-1-carboxamide]
- Percent Degradation at Indicated Concentration (μM) (0.3 μM): C (Percent Degradation: C ≤ 35)
- Percent Degradation at Indicated Concentration (μM) (1 μM): C (Percent Degradation: C ≤ 35)
- Percent Degradation at Indicated Concentration (μM) (3 μM): C (Percent Degradation: C ≤ 35)
- Dmax: ≤ 35%

Structure (SMILES): CN(CCOCCOc1ccc2c(c1)CN(C1CCC(=O)NC1=O)C2=O)C(=O)CCNc1nc(N2CCN(C(N)=O)CC2)c2cc(Cl)c(-c3cc(O)cc4ccccc34)c(F)c2n1 (stereo not shown) [compound 37, 4-(6-chloro-2-((3-((2-(2-((2-(2,6-dioxopiperidin-3-yl)-1-oxoisoindolin-5-yl)oxy)ethoxy)ethyl)(methyl)amino)-3-oxopropyl)amino)-8-fluoro-7-(3-hydroxynaphthalen-1-yl)quinazolin-4-yl)piperazine-1-carboxamide]
- Percent Degradation at Indicated Concentration (μM) (0.3 μM): C (Percent Degradation: C ≤ 35)
- Percent Degradation at Indicated Concentration (μM) (1 μM): C (Percent Degradation: C ≤ 35)
- Percent Degradation at Indicated Concentration (μM) (3 μM): C (Percent Degradation: C ≤ 35)
- Dmax: ≤ 35%

Structure (SMILES): CN(CCOCCOCCOCCOc1ccc2c(c1)CN(C1CCC(=O)NC1=O)C2=O)C(=O)CCNc1nc(N2CCN(C(N)=O)CC2)c2cc(Cl)c(-c3cc(O)cc4ccccc34)c(F)c2n1 (stereo not shown) [compound 39, 4-(6-chloro-2-((1-((2-(2,6-dioxopiperidin-3-yl)-1-oxoisoindolin-5-yl)oxy)-12-methyl-13-oxo-3,6,9-trioxa-12-azapentadecan-15-yl)amino)-8-fluoro-7-(3-hydroxynaphthalen-1-yl)quinazolin-4-yl)piperazine-1-carboxamide]
- Percent Degradation at Indicated Concentration (μM) (0.3 μM): C (Percent Degradation: C ≤ 35)
- Percent Degradation at Indicated Concentration (μM) (1 μM): C (Percent Degradation: C ≤ 35)
- Percent Degradation at Indicated Concentration (μM) (3 μM): C (Percent Degradation: C ≤ 35)
- Dmax: ≤ 35%

Structure (SMILES): CCC(=O)N1CCN(c2nc(NCCC(=O)N(C)CCNc3cccc4c3C(=O)N(C3CCC(=O)NC3=O)C4=O)nc3c(F)c(-c4cc(O)cc5ccccc45)c(Cl)cc23)CC1 (stereo not shown) [compound 41, 3-((6-chloro-8-fluoro-7-(3-hydroxynaphthalen-1-yl)-4-(4-propionylpiperazin-1-yl)quinazolin-2-yl)amino)-N-(2-((2-(2,6-dioxopiperidin-3-yl)-1,3-dioxoisoindolin-4-yl)amino)ethyl)-N-methylpropanamide]
- Percent Degradation at Indicated Concentration (μM): 0.3 (H2030 cells, 0.3 μM): C (C ≤ 35)
- Percent Degradation at Indicated Concentration (μM): 1 (H2030 cells, 1 μM): C (C ≤ 35)
- Percent Degradation at Indicated Concentration (μM): 3 (H2030 cells, 3 μM): C (C ≤ 35)
- Dmax (H2030 cells): ≤ 35%

Structure (SMILES): CCC(=O)N1CCN(c2nc(NCCC(=O)N(C)CCOCCNc3cccc4c3C(=O)N(C3CCC(=O)NC3=O)C4=O)nc3c(F)c(-c4cc(O)cc5ccccc45)c(Cl)cc23)CC1 (stereo not shown) [compound 42, 3-((6-chloro-8-fluoro-7-(3-hydroxynaphthalen-1-yl)-4-(4-propionylpiperazin-1-yl)quinazolin-2-yl)amino)-N-(2-(2-((2-(2,6-dioxopiperidin-3-yl)-1,3-dioxoisoindolin-4-yl)amino)ethoxy)ethyl)-N-methylpropanamide]
- Percent Degradation at Indicated Concentration (μM): 0.3 (H2030 cells, 0.3 μM): C (C ≤ 35)
- Percent Degradation at Indicated Concentration (μM): 1 (H2030 cells, 1 μM): C (C ≤ 35)
- Percent Degradation at Indicated Concentration (μM): 3 (H2030 cells, 3 μM): C (C ≤ 35)
- Dmax (H2030 cells): ≤ 35%

Structure (SMILES): CCC(=O)N1CCN(c2nc(NCCC(=O)N(C)CCOCCOCCNc3cccc4c3C(=O)N(C3CCC(=O)NC3=O)C4=O)nc3c(F)c(-c4cc(O)cc5ccccc45)c(Cl)cc23)CC1 (stereo not shown) [compound 43, 3-((6-chloro-8-fluoro-7-(3-hydroxynaphthalen-1-yl)-4-(4-propionylpiperazin-1-yl)quinazolin-2-yl)amino)-N-(2-(2-(2-((2-(2,6-dioxopiperidin-3-yl)-1,3-dioxoisoindolin-4-yl)amino)ethoxy)ethoxy)ethyl)-N-methylpropanamide]
- Percent Degradation at Indicated Concentration (μM): 0.3 (H2030 cells, 0.3 μM): C (C ≤ 35)
- Percent Degradation at Indicated Concentration (μM): 1 (H2030 cells, 1 μM): C (C ≤ 35)
- Percent Degradation at Indicated Concentration (μM): 3 (H2030 cells, 3 μM): C (C ≤ 35)
- Dmax (H2030 cells): ≤ 35%

Structure (SMILES): CCC(=O)N1CCN(c2nc(NCCC(=O)N(C)CCOCCOCCOCCNc3cccc4c3C(=O)N(C3CCC(=O)NC3=O)C4=O)nc3c(F)c(-c4cc(O)cc5ccccc45)c(Cl)cc23)CC1 (stereo not shown) [compound 44]
- Percent Degradation at Indicated Concentration (μM): 0.3 (H2030 cells, 0.3 μM): C (C ≤ 35)
- Percent Degradation at Indicated Concentration (μM): 1 (H2030 cells, 1 μM): C (C ≤ 35)
- Percent Degradation at Indicated Concentration (μM): 3 (H2030 cells, 3 μM): C (C ≤ 35)
- Dmax (H2030 cells): ≤ 35%

Structure (SMILES): CCC(=O)N1CCN(c2nc(NCCC(=O)N(C)CCOCCOCCOCCOCCNc3cccc4c3C(=O)N(C3CCC(=O)NC3=O)C4=O)nc3c(F)c(-c4cc(O)cc5ccccc45)c(Cl)cc23)CC1 (stereo not shown) [compound 45, 3-((6-chloro-8-fluoro-7-(3-hydroxynaphthalen-1-yl)-4-(4-propionylpiperazin-1-yl)quinazolin-2-yl)amino)-N-(14-((2-(2,6-dioxopiperidin-3-yl)-1,3-dioxoisoindolin-4-yl)amino)-3,6,9,12-tetraoxatetradecyl)-N-methylpropanamide]
- Percent Degradation at Indicated Concentration (μM): 0.3 (H2030 cells, 0.3 μM): C (C ≤ 35)
- Percent Degradation at Indicated Concentration (μM): 1 (H2030 cells, 1 μM): C (C ≤ 35)
- Percent Degradation at Indicated Concentration (μM): 3 (H2030 cells, 3 μM): C (C ≤ 35)
- Dmax (H2030 cells): ≤ 35%

Structure (SMILES): CCC(=O)N1CCN(c2nc(NCCC(=O)N(C)CCOc3ccc4c(c3)C(=O)N(C3CCC(=O)NC3=O)C4=O)nc3c(F)c(-c4cc(O)cc5ccccc45)c(Cl)cc23)CC1 (stereo not shown) [compound 46, 3-((6-chloro-8-fluoro-7-(3-hydroxynaphthalen-1-yl)-4-(4-propionylpiperazin-1-yl)quinazolin-2-yl)amino)-N-(2-((2-(2,6-dioxopiperidin-3-yl)-1,3-dioxoisoindolin-5-yl)oxy)ethyl)-N-methylpropanamide]
- Percent Degradation at Indicated Concentration (μM): 0.3 (H2030 cells, 0.3 μM): C (C ≤ 35)
- Percent Degradation at Indicated Concentration (μM): 1 (H2030 cells, 1 μM): C (C ≤ 35)
- Percent Degradation at Indicated Concentration (μM): 3 (H2030 cells, 3 μM): C (C ≤ 35)
- Dmax (H2030 cells): ≤ 35%
